Legend:
[1] = system: human ventricular cardiac tissue strip (hvCTS); experiment: hvCTS contractile force assay, unstretched, 1-Hz pacing; assay type: cell-based; details: hvCTS paced at 1 Hz, increasing concentrations, responses described as blunted
Protocol: Seventy-two hours after dissociation, the hvCTS was made by mixing 1.3 million hESC-vCMs and 0.13 million human foreskin fibroblasts, together with 110 μl collagen gel comprising 1.67 mg/ml collagen and […] Matrigel. The cell mixture was then cast into a PDMS mold with two pillars and allowed to solidify for 2 hours in a 37° C., 5% CO2 incubator. Then, the cell mixture was fed with 7 ml DMEM medium (high glucose) supplemented with 10% newborn calf serum. Half of the medium was changed every 2 days.
On day 17 post-fabrication, human ventricular Cardiac Tissue Strips (hvCTS) were transferred from their molds and hooked to the force transducer unit and motor unit of an isolated muscle bath system (Aurora Scientific). The length of the hooked tissue was then adjusted to reach minimal developed tension, which was defined as the original length (Lo, or 0% Lmax) of the tissue. The hvCTS was then incubated in the bath at 37° C. for 10 minutes. Next, the hvCTS was electrically paced (at 5V/cm) at 1 Hz frequency, and stretched from 0 to 50% strain in 2.5% increments every 20 seconds. Recordings were made using Dynamic Muscle Control software (Aurora Scientific). The contractile parameters at each % strain, such as developed force, contractile rate and relaxation rate, were analyzed by Clampfit (Molecular Devices). The length with the maximum developed force was defined as Lmax. […]

[2] = system: human ventricular cardiac organoid chamber (hvCOC); experiment: hvCOC pressure-volume / developed pressure assay with preload; assay type: cell-based; details: for area in the pressure-volume loops: absence of preload
Protocol: The hvCOC was made by a similar approach: Ten million hESC-vCMs and 1 million human foreskin fibroblasts were mixed with 1650 μl collagen gel (same relative composition as described above for hvCTS). The mixture was then cast into a 13-mm diameter cavity in a 2% agarose gel. A modified 6-Fr silicone balloon Foley catheter (Cook Medical) was then inflated and placed into the center of the bioreactor to form the inner boundary of the hvCOC. An 8 mm porous polyethylene ring (Fisher Scientific) and a 6 mm rubber ring were placed on top of the catheter to provide an hvCOC anchor. The polyethylene ring, rubber ring and the catheter were held by a metal tube with 3.9 mm outer diameter. The cell mixture was allowed to solidify for 2 hours in a 37° C., 5% CO2 incubator. Then, the solidified cell mixture was fed with 7 ml DMEM medium (high glucose) supplemented with 10% newborn calf serum. After 24 hours, the medium was aspirated and the agarose gel was removed. Twenty ml of medium was replenished and half of the medium was changed every 2 days. Further description of the hvCOC is provided in Example 5.
Human ventricular Cardiac Organoid Chamber (hvCOC) behavior was measured on day 10 post-fabrication. First, the catheter was deflated and removed. Then, the culture medium was replaced by phenol red-free DMEM (with 25 mM glucose and 25 mM HEPES). Rubber tubing was then filled with medium and used to connect the metal tube of the hvCOC apparatus to a medium tank. The hvCOC was electrically paced at 1.5 Hz (5V/cm) and the pressure-volume change resulting from the paced contractions was recorded for 30 seconds. Pressure was measured by a pressure sensor (Millar) placed inside the hvCOC, and associated area change of the hvCOC was captured by high-speed camera (Allied Vision). The medium tank level was then adjusted from 0 mm (relative to medium level of that in the hvCOC bioreactor), to 2.5, 5 and 7.5 mm above the medium level (representing 0, 2.5, 5 and 7.5 mm H2O preload). The measurements at all 4 preloads (0, 2.5, 5 and 7.5 mm H2O) were then repeated at each dose (0.01 and 0.1 μM) of levosimendan after a 5-minute incubation period.

Structure (SMILES)	contractile force [1]	area in the pressure-volume loops ([2]; hvCOC)	increase in developed pressure ([2]; hvCOC, 5 mmH2O preload, 0.1 μM)	developed pressure, dose dependence ([2]; hvCOC, 7.5 mmH2O preload)	developed pressure ([2]; hvCOC, no preload (0 mmH2O), 1 μM)	response of hvCOC (developed pressure) ([2]; preload increased to 2.5 or 5 mmH2O)
CC(C)NCC(O)c1ccc(O)c(O)c1 (centres unmarked) [isoproterenol]	trend of increasing contractile force	increase in area in the pressure-volume loops	–	–	–	–
C[C@@H]1CC(=O)NN=C1c1ccc(NN=C(C#N)C#N)cc1 [levosimendan]	trend of increasing contractile force	increase in area in the pressure-volume loops	approximately 50%	did not show any significant dose-dependent increase	no increase in developed pressure	greatly enhanced the response
